Source: article PMC2709466, “Heteroarotinoids with Anti-Cancer Activity Against Ovarian Cancer Cells” (The Open Medicinal Chemistry Journal, 2007)

How the values were obtained:
[1] = set-up: method as in PMID 9357524; conditions: mice; cited from earlier work
[2] = tested on: A2780 ovarian cancer cells; assay: CellTiter 96 AQueous One Solution (MTS) cytotoxicity assay, 48 h, A2780; format: cell-based; conditions: for EC50: Homo sapiens, A2780 ovarian cancer cells, 48 hours of treatment, read-out: Potencies (EC50 values) of Growth Inhibition Activity, A2780 Ovarian Cancer; for Growth inhibition of ovarian cancer cultures (in words): A2780, Fig. 4; for Differential effects on cancer cells versus normal cells (therapeutic window): A2780 versus normal endometrial cells, Fig. 4C and Table 4
Protocol: (§1) The CellTiter 96 AQueous One Solution Cell Proliferation Assay (Promega) was used to measure living cells remaining after 48 hours of incubation with or without a range of concentrations for the heteroarotinoids. MTS [3-(4,5-dimethylthiazol-2-yl)-5-(3-carboxymethoxyphenyl)-2-(4-sulfophenyl) -2H-tetrazolium, inner salt], a novel tetrazolium compound, was added to each well and incubated for 4 hours, followed by addition of a solublization/stop solution. After overnight incubation, the optical density (OD) of each well was determined by measuring the absorbance at 540 nm using a Dynex MRX Revelation microtiter plate reader. Treatments were performed in triplicate, and the growth indices were derived by dividing the average OD540 of each treatment by the average OD540 of control cultures. The results represent the average and standard error of two to three independent experiments.
(§2) The A2780 ovarian cancer cells were cultured in RPMI media, and normal endometrial cells were cultured in MEM media. Both media contained fetal bovine serum (FBS), sodium pyruvate, and antibiotic/antimycotic. The normal endometrial cells were collected from a healthy premenopausal […] and used prior to passage as previously described.
The abilities of the new heteroarotinoids to inhibit cancer growth were compared by growing the ovarian cancer cell line (A2780) in the absence and presence of various concentrations of the different compounds. The amount of cells remaining after 48 hours of treatment was measured using a cytotoxicity assay. The optical density (OD) endpoint of the assay represents the number of cells remaining after 48 hours of treatment. The Growth Index was derived by dividing the OD of treated cultures by the OD of untreated cultures. The results are presented in graphic form where Growth Index on the y axis represents the number of cells remaining after 48 hours of treatment relative to untreated controls, and the x axis represents the concentration of drug added. The lower the Growth Index, the greater the growth inhibition.

normal endometrial cells = assay: CellTiter 96 AQueous One Solution (MTS) cytotoxicity assay, 48 h, normal cells; format: cell-based; conditions: 48 hours of treatment, read-out: Potencies (EC50 values) of Growth Inhibition Activity, Normal Endometrium
Protocol: as §1, §2

[3] = set-up: method as in PMID 16534614; conditions: cited from earlier work
[4] = set-up: method as in PMID 16534614; conditions: preliminary evidence; cited from earlier work
cancerous cell phenotype = tested on: cancerous cell phenotype; set-up: method as in PMID 11287445; conditions: at 3 μM; cited from earlier work
[5] = preclinical testing; cited from earlier work
A2780 cells = assay: Annexin-V-FITC / propidium iodide apoptosis assay (flow cytometry); format: cell-based; conditions: 10 µM, 24 hours
Protocol: Cells were plated in 6-well tissue culture dishes at a cell density of 1 x 10^5 cells/well. After allowing cells to adhere to the dishes overnight, parallel cultures were treated with varying concentrations of heteroarotinoids or the same volume of DMSO solvent for 24 hours. The Vybrant™ Apoptosis Assay Kit #3 (Molecular Probes) was then utilized to measure apoptosis and necrosis. Tissue culture medium in each well was collected to harvest cells that had already lifted off the tissue culture plate. These were combined with adherent cells that were harvested by trypsinization. The cells were pelleted by centrifugation and resuspended in 100 μL of 1X annexin-binding buffer, and then they were incubated with 5 µl of annexin V conjugated to fluorescein (Annexin-V-FITC) and 1 µL of 100 µg/mL propidium iodide (PI) for 15 minutes at room temperature. The solution was then mixed gently with an additional 400 µl of 1X annexin-binding buffer, and the samples were evaluated with a FACSCalibur (Becton Dickinson) automated benchtop flow cytometer at an excitation wavelength of 488 nm with observation wavelengths of 530 nm and 575 nm. Flow cytometry data were quantified using Summit for MoFlo Acquisition and Sort Control Software (Cytomation, Inc). […]

SMILES | EC50 [2] [µM] | EC50 (normal endometrial cells) [µM] | melting point [°C] | Growth inhibition of ovarian cancer cultures (in words) [2] | Differential effects on cancer cells versus normal cells (therapeutic window) [2] | further results
CC1=C(/C=C/C(C)=C/C=C/C(C)=C/C(=O)O)C(C)(C)CCC1 [Compound 1, trans-retinoic acid] |  |  |  |  |  | maximum tolerated dose (MTD) [1]: 10 mg/kg/day
Cc1ccc2cc(NC(=S)Nc3ccc([N+](=O)[O-])cc3)ccc2n1 [Compound 9a, 1-(2-Methylquinolin-6-yl)-3-(4-nitrophenyl) thiourea] | 5 | > 1000 | 113 to 115 |  |  | 
Cc1ccc2cc(NC(=O)Nc3ccc([N+](=O)[O-])cc3)ccc2n1 [Compound 9b, 1-(2-Methylquinolin-6-yl)-3-(4-nitrophenyl)urea] | 7.86 | > 1000 | 241 to 242 |  |  | 
CCOC(=O)c1ccc(NC(=O)Nc2ccc3nc(C)ccc3c2)cc1 [Compound 9c, Ethyl 4-[3-(2-Methylquinolin-6-yl)ureido]benzoate] | 4.88 | > 1000 |  |  |  | 
CC1(C)CC(C)(C)c2cc(NC(=S)Nc3ccc([N+](=O)[O-])cc3)ccc2S1 [Compound 10a, [4-nitrophenylamino][(2,2,4,4-tetramethylthiochroman-6-yl)amino]methane-1-thione] | 1.72 | 2.97 |  | micromolar range | differential effects | Binding to proteins in mouse plasma [3]: binds strongly; Concentrations achieved and maintained in animal models [4]: micromolar concentrations; Effects on differentiation (cancerous cell phenotype): normalization of the cancerous cell phenotype and induction of orderly tissue architecture; Toxicity, skin irritancy, teratogenicity [5]: without evidence of toxicity, skin irritancy, or teratogenicity
CC1(C)CC(C)(C)c2cc(NC(=O)Nc3ccc([N+](=O)[O-])cc3)ccc2S1 [Compound 10c, 1-(2,2,4,4-Tetramethylthiochroman-6-yl)-3-(4-nitrophenyl)urea] | 1.02 | 2.29 |  | micromolar range | differential effects | Induction of apoptosis (Annexin-V-FITC staining) (A2780 cells): induces positive staining for Annexin-V-FITC; Degree of apoptosis induced, 10c compared with 10a (A2780 cells; Fig. 5C): slightly higher
